Measurements taken from patent publication US20250270648A1, “MOLECULAR SIGNATURE FOR ASSESSING THE RESPONSIVENESS OF CANCER TO MITOCHONDRIA-TARGETED ANTIOXIDANTS” (UNIVERSITÉ CATHOLIQUE DE LOUVAIN, priority 2021, published 2025).

How the values were obtained:
[1] = tested on: SkBr3 cells; assay: RNA sequencing; format: cell-based, human; details: MitoQ 500 nM, 48 h; |log 2 fold change|>1 and P<0.01
Procedure: (§1) MDA-MB-231 and SkBr3 cancer cells were treated ±MitoQ for 48 h. Total mRNA was then extracted using the NucleoSpin RNA kit (Macherey-Nagel®), including DNAse treatment in the intermediary steps. mRNAs were quantified using the Qubit BR dsRNA assay kit (Thermo Fisher Scientific®), and mRNA integrity was evaluated on the Agilent 2100 Bioanalyzer using the RNA 6000 nano kit (Agilent®). All samples had RNA integrity number values ≥7.5. Libraries from control and treated samples were prepared starting from 150 ng of total mRNA using the KAPA RNA HyperPrep Kit with RiboErase (HMR) kit (KAPA Biosystems®) following the manufacturer's recommendations (KR1351—v1.16). Libraries were equimolarly pooled and sequenced on a single lane of an Illumina® NovaSeq 6000 platform. All libraries were sequenced at a depth of >50 million paired-end reads (2×100 bp reads) per sample. All sequencing data were analyzed using the Automated Reproducible MOdular workflow for preprocessing and differential analysis of RNAseq data (ARMOR) pipeline. In this pipeline, reads underwent a quality check using FastQC. Quantification and quality control results were summarized in a MultiQC report before being mapped using Salmon to the transcriptome index that was built using all Ensembl cDNA sequences obtained in the Homo_sapiens.GRCh38.cdna.all.fa file. Then, estimated transcript abundances from Salmon were imported into R using the tximeta package, and analyzed for differential gene expression with edgeR. To get a robust signature, only genes with |log 2 Fold Change|>1 and P<0.01 were retained.

[2] = tested on: MDA-MB-231 cells; assay: RNA sequencing; format: cell-based, human; details: MitoQ 500 nM, 48 h; |log 2 fold change|>1 and P<0.01
Procedure: as §1

[3] = tested on: Human MDA-MB-231 breast cancer cells; assay: Cell viability, crystal violet; format: cell-based; details: increasing doses of cisplatin ±100 nM MitoQ, 48 h
Procedure: […] The solution was carefully removed and plates were washed twice with water. After drying protected by light, cells were resuspended in 50 μl DMSO and the plates were read with a Victor X4 plate reader (Perkin®).

[4] = tested on: MDA-MB-231 human breast cancer cells; assay: Metastatic take assay, tail vein injection of pretreated cells; format: in vivo, mouse; details: cells pretreated 6 h with 1 μM MitoQ
Procedure: For metastasis take assays, cancer cells were pretreated ±MitoQ for 6 h, and 10^6 viable cells were injected into the tail vein of five weeks-old female Rj:NMRI-Foxn1nu/nu mice (Janvier). After 4 weeks, mice were sacrificed and the lungs insufflated with 3 mL of Indian ink (15% in ddH2O). Mouse lungs were removed, washed with PBS and incubated overnight in Fekete's solution (700 mL/L 100% ethanol, 32 mL/L 37% formalin, 40 mL/L glacial acetic acid, diluted in ddH2O). The next morning, lungs were transferred to a 70% ethanol solution and were further examined under a Stemi 2000-C dissection stereomicroscope (Zeiss®) to count the number of metastasis per lung.

[5] = tested on: MDA-MB-231 human breast cancer cells; assay: Seahorse oximetry, oxygen consumption rates (OCRs); format: cell-based; details: MitoQ 100 nM, 48 h
Procedure: Oxygen consumption rates (OCRs) were determined on a Seahorse XF96 bioenergetic analyzer using the XF cell Mito stress kit (Agilent Technologies®), according to manufacturer's recommendations. Briefly, MDA-MB-231 (10^4 cells/well), SkBr3 (10^4 cells/well), MDA-MB-436 (10^4 cells/well) or MCF10A (10^5 cells/well) were plated on XF96 culture plates 16 h before experiments in DMEM containing 10% FBS, and treated ±MitoQ for 48 h. On the day of analysis, culture media were replaced by DMEM containing 10 mM glucose, 2 mM glutamine, 1.85 g/L NaCl, 3 mg/L phenol red, pH 7.4. Cells were incubated for 1 h in a CO2-free incubator before analysis. Sequentially, basal OCR was acquired without treatment; ATP-linked OCR after the addition of 1 μM of ATP synthase inhibitor oligomycin; maximal OCR after mitochondrial potential disruption using 1 μM of ionophore carbonyl cyanide-4-(trifluoromethoxy) phenylhydrazone (FCCP); and non-mitochondrial OCR after the addition of 0.5 μM of Complex I inhibitor rotenone together with 0.5 μM of Complex III inhibitor antimycin A. All data were normalized by total protein content (Bio-Rad® Protein Assay; catalogue #5000006) measured right after oximetry. Mitochondrial OCRs (mtOCRs) were calculated by subtracting non-mitochondrial OCRs to the corresponding basal, maximal and ATP-linked OCRs.

[6] = tested on: murine 4T1 breast cancer cells; assay: Cell viability, CellTiter-Glo; format: cell-based, mouse; details: increasing doses of DXR ±100 nM MitoQ, 48 h
Procedure: Cells were plated in 96-well plates and left to adhere for 16 hours. In order to avoid reaching full confluence at the endpoint, starting cell count was defined according to doubling time and the duration of the experiment. Following adhesion, cells were treated with the indicated compounds for 48 h, after which staining was done with a CellTiter-Glo Luminescent Cell Viability assay (Promega®, catalogue #G7570), according to supplier's instructions. This method is based on the quantification of intracellular ATP levels.

COC1=C(OC)C(=O)C(CCCCCCCCCC[P+](c2ccccc2)(c2ccccc2)c2ccccc2)=C(C)C1=O [MitoQ]
number of downregulated transcripts [1]: 5 | number of upregulated transcripts [1]: 20 | number of downregulated transcripts [2]: 1,943 | number of upregulated transcripts [2]: 2,153 | cancer cell killing activity, cisplatin combined with MitoQ [3]: did not interfere | mice metastasis-free ([4]; at necropsy, four weeks): 36.4% | mice with <2 metastasis ([4]; at necropsy, four weeks): 27.2% | mice with >2 lung metastases ([4]; at necropsy, four weeks): 36.4% | metastasis developed vs mice that received vehicle-treated cells ([4]; four weeks after injection of 10^6 cells): significantly less | basal, maximal and ATP-linked oxygen consumption rates (OCRs) [5]: decreased | DXR-induced cell killing [6]: did not interfere
